Among the data in PubChem BioAssay AID330 (DTP/NCI, 2004) are T/C values, retold here.

For the assay, the system named is P388 leukemia ip, CD2F1 mice, survival T/C. Briefly: NCI In Vivo Anticancer Drug Screen. Data for tumor model P388 Leukemia (intraperitoneal) in CD2F1 (CDF1) mice. To be noted: endpoint: median survival time, higher = longer survival. The gist of the method: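 Mice carrying the transplanted tumor received test compound or vehicle. Survival was recorded in each group, and the value is the treated-group measurement divided by that of the vehicle-treated control group.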

The mark [1] stands for this setting: dose: 100.0 mg/kg/injection, schedule: Q04DX002 (ip), vehicle: saline with Tween-80.
Where [2] appears, read: dose: 200.0 mg/kg/injection, schedule: Q04DX002 (ip), vehicle: saline with Tween-80.
Setting [3] is: dose: 400.0 mg/kg/injection, schedule: Q04DX002 (ip), vehicle: saline with Tween-80.
Where [4] appears, read: dose: 200.0 mg/kg/injection, schedule: Q01DX009 (ip), vehicle: saline with Tween-80.
Setting [5] is: dose: 50.0 mg/kg/injection, schedule: Q01DX005 (ip), vehicle: Klucel (hydroxypropylcellulose) (HPC).
[6] abbreviates: dose: 100.0 mg/kg/injection, schedule: Q01DX005 (ip), vehicle: Klucel (hydroxypropylcellulose) (HPC).
The mark [7] stands for this setting: dose: 200.0 mg/kg/injection, schedule: Q01DX005 (ip), vehicle: Klucel (hydroxypropylcellulose) (HPC).
Setting [8] is: dose: 25.0 mg/kg/injection, schedule: Q01DX009 (ip), vehicle: saline.
Setting [9] is: dose: 50.0 mg/kg/injection, schedule: Q01DX009 (ip), vehicle: saline.
[10] abbreviates: dose: 25.0 mg/kg/injection, schedule: Q01DX009 (ip), vehicle: saline with Tween-80.
The mark [11] stands for this setting: dose: 50.0 mg/kg/injection, schedule: Q01DX009 (ip), vehicle: saline with Tween-80.
[12] abbreviates: dose: 100.0 mg/kg/injection, schedule: Q01DX009 (ip), vehicle: saline with Tween-80.
The mark [13] stands for this setting: dose: 100.0 mg/kg/injection, schedule: Q04DX003 (ip), vehicle: saline.
Setting [14] is: dose: 60.0 mg/kg/injection, schedule: Q01DX005 (ip), vehicle: saline with Tween-80.
Where [15] appears, read: dose: 120.0 mg/kg/injection, schedule: Q01DX005 (ip), vehicle: saline with Tween-80.
[16] abbreviates: dose: 240.0 mg/kg/injection, schedule: Q01DX005 (ip), vehicle: saline with Tween-80.
Where [17] appears, read: dose: 50.0 mg/kg/injection, schedule: Q01DX005 (ip), vehicle: saline with Tween-80.
[18] abbreviates: dose: 100.0 mg/kg/injection, schedule: Q01DX005 (ip), vehicle: saline with Tween-80.
[19] abbreviates: dose: 200.0 mg/kg/injection, schedule: Q01DX005 (ip), vehicle: saline with Tween-80.

Values joined by “and” are separate entries in the source; they are usually repeats but may differ in a detail not shown here. Identical values can stand only once. Toxic doses and inconclusive results are not listed.

In the case of `NC(=Nc1ccccc1)N(c1ccccc1)c1nc(=S)ss1`, the T/C is, setting by setting: under setting [1], 104 % of control; under setting [2], 93 % of control; under setting [3], 87 % of control.
Consider `C[C@@H]1C[C@H]2CC[C@H](O2)[C@H](C)C(=O)O[C@@H](C)C[C@@H]2CC[C@@H](O2)[C@@H](C)C(=O)O[C@H](C)C[C@H]2CC[C@H](O2)[C@H](C)C(=O)O[C@@H](C)C[C@@H]2CC[C@@H](O2)[C@@H](C)C(=O)O1`, for which the T/C (dose: 132.0 mg/kg/injection, schedule: Q01DX009 (ip), vehicle: saline with Tween-80) is 100 % of control; the T/C under setting [4] was 104 % of control; the T/C (dose: 300.0 mg/kg/injection, schedule: Q01DX009 (ip), vehicle: saline with Tween-80) is 104 % of control.
`COC(=O)[C@@H]1[C@H]2CS(=O)(=O)C[C@H]2[C@@H]1C(=O)OC`: the T/C was 99 % of control under setting [5], 96 % of control under setting [6] and 100 % of control under setting [7].
For `CSC1=NN(C)C2(CCCCC2)C(=O)N1`, the T/C (dose: 50.0 mg/kg/injection, schedule: Q01DX009 (ip), vehicle: Klucel (hydroxypropylcellulose) (HPC)) was 115 % of control; the T/C (dose: 100.0 mg/kg/injection, schedule: Q01DX009 (ip), vehicle: Klucel (hydroxypropylcellulose) (HPC)) is 96 % of control; the T/C (dose: 200.0 mg/kg/injection, schedule: Q01DX009 (ip), vehicle: Klucel (hydroxypropylcellulose) (HPC)) was 118 % of control.
As for `Nc1cccc2nccn12`, the T/C (dose: 12.5 mg/kg/injection, schedule: Q01DX009 (ip), vehicle: saline) was 105 % of control; the T/C under setting [8] was 102 % of control; the T/C under setting [9] was 104 % of control and 95 % of control.
On to `O=[N+]([O-])c1cccc(C(O)C=C(C(F)(F)F)C(F)(F)F)c1` (configuration not stated), for which the T/C is 100 % of control under setting [10]; 100 % of control (dose: 25.0 mg/kg/injection, schedule: Q04DX003 (ip), vehicle: saline); 109 % of control (dose: 33.0 mg/kg/injection, schedule: Q01DX009 (ip), vehicle: saline with Tween-80); 113 % of control under setting [11]; 95 % of control (dose: 50.0 mg/kg/injection, schedule: Q04DX003 (ip), vehicle: saline); 113 % of control (dose: 75.0 mg/kg/injection, schedule: Q01DX009 (ip), vehicle: saline with Tween-80). In addition, the T/C is, setting by setting: under setting [12], 113 % of control; under setting [13], 100 % of control.
For the compound `CCOC(=O)CCC1=C(C)c2cc3[nH]c(cc4[nH]c(cc5nc(cc1n2)C(CCC(=O)OCC)=C5C)c(C1CC1C(=O)OCC)c4C)c(C1CC1C(=O)OCC)c3C` (configuration not stated), the T/C by setting is: under setting [5], 102 % of control; under setting [6], 100 % of control; under setting [7], 101 % of control.
As for `[Cl][Pt].c1ccc([PH+](CCC[PH+](c2ccccc2)c2ccccc2)CCC[PH+](c2ccccc2)c2ccccc2)cc1`, the T/C runs as follows: (dose: 12.5 mg/kg/injection, schedule: Q04DX003 (ip), vehicle: saline with Tween-80) 109 % of control; (dose: 25.0 mg/kg/injection, schedule: Q04DX003 (ip), vehicle: saline with Tween-80) 109 % of control; (dose: 50.0 mg/kg/injection, schedule: Q04DX003 (ip), vehicle: saline with Tween-80) 97 % of control; (dose: 100.0 mg/kg/injection, schedule: Q04DX003 (ip), vehicle: saline with Tween-80) 95 % of control; (dose: 200.0 mg/kg/injection, schedule: Q04DX003 (ip), vehicle: saline with Tween-80) 104 % of control.
With `Cc1cc2nc3ccccc3[nH]c2c2ccc(=O)cc12`, the T/C is 99 % of control under setting [1], 98 % of control under setting [2] and 94 % of control under setting [3].
With `COC(=O)CC1(C(=O)OC)c2ccc3ccccc3c2N(C#N)C1CCCBr` (configuration not stated), the T/C is 109 % of control (dose: 100.0 mg/kg/injection, schedule: Q01DX001 (ip), vehicle: saline); 107 % of control (dose: 200.0 mg/kg/injection, schedule: Q01DX001 (ip), vehicle: saline); 100 % of control (dose: 400.0 mg/kg/injection, schedule: Q01DX001 (ip), vehicle: saline).
Consider `CCOC(=O)C(C)Oc1ccc(Cn2ccnn2)cc1` (configuration not stated), for which the T/C by setting is: under setting [14], 98 % of control; under setting [15], 98 % of control; under setting [16], 96 % of control.
As to `CC1CC(C)/C(=N/NC(N)=S)C(C(O)CC2CC(=O)NC(=O)C2)C1` (configuration not stated), the T/C was 109 % of control under setting [17], 105 % of control under setting [18] and 104 % of control under setting [19].
With `CN1C(=O)NC2(C1=O)C(=O)N(C)C(=O)N2C` (configuration not stated), the T/C is 91 % of control under setting [9]; 92 % of control (dose: 100.0 mg/kg/injection, schedule: Q01DX009 (ip), vehicle: saline); 95 % of control (dose: 200.0 mg/kg/injection, schedule: Q01DX009 (ip), vehicle: saline).
On to `CC(C)(OCc1ccccc1)c1ccccc1[P+](C)(c1ccccc1)c1ccccc1`, for which the T/C was 109 % of control (dose: 100.0 mg/kg/injection, schedule: Q01DX001 (ip), vehicle: Klucel (hydroxypropylcellulose) (HPC)) and 113 % of control (dose: 200.0 mg/kg/injection, schedule: Q01DX001 (ip), vehicle: Klucel (hydroxypropylcellulose) (HPC)).
Turning to `CCCCCCC(=O)/C=C/c1ccc(C)cc1`, the T/C reads like this: under setting [5], 100 % of control; under setting [6], 100 % of control; under setting [7], 94 % of control.
In the case of `CCC1CC2CN(CCc3c([nH]c4ccccc34)C(C(=O)OC)(c3cc4c(cc3OC)N(C)C3C(O)(C(=O)OC)C(OC(C)=O)C5(CC)C=CCN6CCC43C65)C2)C1` (configuration not stated), the T/C is, setting by setting: (dose: 0.05 mg/kg/injection, schedule: Q01DX009 (ip), vehicle: Klucel (hydroxypropylcellulose) (HPC)) 123 % of control; (dose: 0.06 mg/kg/injection, schedule: Q01DX009 (ip), vehicle: water) 124 % of control; (dose: 0.25 mg/kg/injection, schedule: Q04DX003 (ip), vehicle: water) 150 % of control; (dose: 0.4 mg/kg/injection, schedule: Q01DX009 (ip), vehicle: Klucel (hydroxypropylcellulose) (HPC)) 169 % of control; (dose: 0.5 mg/kg/injection, schedule: Q04DX003 (ip), vehicle: water) 160 % of control; (dose: 0.8 mg/kg/injection, schedule: Q01DX009 (ip), vehicle: Klucel (hydroxypropylcellulose) (HPC)) 169 % of control. In addition, the T/C (dose: 1.0 mg/kg/injection, schedule: Q04DX003 (ip), vehicle: water) is 223 % of control; the T/C (dose: 2.0 mg/kg/injection, schedule: Q04DX003 (ip), vehicle: water) was 232 % of control; the T/C (dose: 4.0 mg/kg/injection, schedule: Q01DX009 (ip), vehicle: water) is 115 % of control.
`COc1cc2c(cc1O)C(=O)c1[nH]c3ccccc3c1CC2`: the T/C under setting [13] is 107 % of control; the T/C (dose: 200.0 mg/kg/injection, schedule: Q04DX003 (ip), vehicle: saline) was 107 % of control; the T/C (dose: 400.0 mg/kg/injection, schedule: Q04DX003 (ip), vehicle: saline) was 101 % of control.
`Cn1c(=O)c2c(O)c(-c3ccccc3)c(=O)n3c4ccccc4n(c1=O)c23`: the T/C is 99 % of control under setting [14], 96 % of control under setting [15] and 97 % of control under setting [16].
On to `CCOC(=O)C(CC/C=C(\C)CC/C=C/COC(=O)N(C(C)C)C(C)C)P(=O)(OCC)OCC` (configuration not stated), for which the T/C reads like this: under setting [17], 109 % of control; under setting [18], 106 % of control; under setting [19], 109 % of control.
As to `CCN(CC)CCC(=O)/C=C/c1ccccc1`, the T/C runs as follows: under setting [8], 111 % of control; under setting [9], 116 % of control and 118 % of control.
As for `Fc1ccc(NC(=S)NC2CC2)c(F)c1`, the T/C was 104 % of control under setting [11] and 104 % of control under setting [12].
In the case of `CN(C)C(=O)c1ccc([N+](=O)[O-])cc1`, the T/C runs as follows: under setting [10], 119 % of control; under setting [11], 98 % of control; under setting [12], 96 % of control; under setting [4], 104 % of control.
